From US10906920B2, “Heterocyclic compounds as immunomodulators” (Incyte Corporation, priority 2018, dated 2021)

Assays:
[1] = tested on: PD-L1 aAPC/CHO-K1 cells and Jurkat-PD-1-NFAT effector cells; assay: Nuclear factor of activated T-cells (NFAT) assay; type: cell-based
Procedure: The culture media of PD-L1 aAPC/CHO-K1 cells were first replaced with assay medium (RPMI1640 medium with 1% FBS). […] The assay plate was incubated at 37° C., 5% CO2 for 24 hours. […] After 8 minutes incubation at room temperature, luminescence was read at with Pherastar microplate reader (BMG Labtech). The fold of induction (FOI) was calculated based on the ratio of luminescence normalized to the DMSO wells within each assay plate. The maximum percentage of induction was reported based on the ratio between the highest FOI of each compound and the maximum FOI of control compound within each assay plate. Wells with DMSO were served as the negative controls and wells containing control compound with the highest FOI were used as positive controls. EC50 determination was performed by fitting the curve of percent control activity versus the log of the compound concentration using the GraphPad Prism 6.0 software.

[2] = tested on: U2OS/PD-L1 cells and Jurkat-PD-1-SHP cells; assay: Src homology region 2 domain-containing phosphatase (SHP) assay; type: cell-based; details: Homo sapiens
Procedure: Example B. Src Homology Region 2 Domain-Containing Phosphatase (SHP) Assay
U2OS/PD-L1 cells (DiscoveRx Corporation) were maintained in McCoy's 5A medium with addition of 10% FBS, 0.25 μg/ml Puromycin. After removing the culture media, the cell medium was replaced with assay medium (RPMI1640 medium with 1% FBS). The U2OS/PD-L1 cells were then added in 384-well black clear bottom assay plate (CELLCOAT® Tissue Culture Plates, Greiner Bio-One) at 5000 cells per well in 20 μL assay medium. Test compounds were prepared by serial dilution in DMSO and 125 nL compound were first transferred to the 384 REMP plate well (Thermofisher) by ECHO liquid handler (Labcyte) followed with addition of 27.5 μL assay medium. 5 μL/well compounds in the assay medium were transferred to the cell plate with 0.05% DMSO in the final assay at 0.25 Jurkat-PD-1-SHP cells (DiscoveRx Corporation) were cultured in RPMI1640 medium supplemented with 10% FBS, 250 μg/ml Hygromycin B, 500 μg/ml G418. After the replacement of culture media with assay medium, 5,000 Jurkat-PD-1-SHP cells in 20 μL were dispensed into each well. The assay plate was incubated at 37° C., 5% CO2 for 2 hours before 2.5 μL PathHunter reagent 1 (DiscoveRx Corporation) were added to each well. […] Chemiluminescent signal was recorded with TopCount reader (Perkin Elmer) after incubation at room temperature for 1 hour. […]

| IC50 [2] [nM] | Structure (SMILES) | EC50 [1] [nM] |
| --- | --- | --- |
| – | Cn1c(C(=O)Nc2cccc(-c3cccc(NC(=O)c4nc5c(n4C)CCN(CC(C)(C)C(=O)O)C5)c3Cl)c2Cl)nc2c1CCN(CCC13CCC(C(=O)O)(CC1)C3)C2 [Example 21, 4-(2-(2-((3′-(5-(2-carboxy-2-methylpropyl)-1-methyl-4,5,6,7-tetrahydro-1H-imidazo[4,5-c]pyridine-2-carboxamido)-2,2′-dichloro-[1,1′-biphenyl]-3-yl)carbamoyl)-1-methyl-1,4,6,7-tetrahydro-5H-imidazo[4,5-c]pyridin-5-yl)ethyl)bicyclo[2.2.1]heptane-1-carboxylic acid] | 10 to 100 |
| ≤ 10 | Cn1c(C(=O)Nc2cccc(-c3cccc(NC(=O)c4nc5c(n4C)CCN(CCC46CCC(C(=O)O)(CC4)C6)C5)c3Cl)c2Cl)nc2c1CCN(CCCCC(=O)O)C2 [Example 63, 4-(2-(2-((3′-(5-(4-carboxybutyl)-1-methyl-4,5,6,7-tetrahydro-1H-imidazo[4,5-c]pyridine-2-carboxamido)-2,2′-dichloro-[1,1′-biphenyl]-3-yl)carbamoyl)-1-methyl-1,4,6,7-tetrahydro-5H-imidazo[4,5-c]pyridin-5-yl)ethyl)bicyclo[2.2.1]heptane-1-carboxylic acid] | – |
